What is called MIC is the lowest concentration that inhibits growth of the organism. A low value points to greater potency.

Holding throughout (type): functional
For assay [1], the system named is Mycobacterium tuberculosis. Description: Antimycobacterial activity against multidrug-resistant Mycobacterium tuberculosis Praha 131 after 7 days by micromethod.
Assay [2] concerns Mycobacterium tuberculosis. Briefly: Antimycobacterial activity against multidrug-resistant Mycobacterium tuberculosis Praha 4 after 14 days by micromethod. Particulars: Praha 4, 336 h.
Assay [3] deals with Mycobacterium tuberculosis. Briefly: Antimycobacterial activity against multidrug-resistant Mycobacterium tuberculosis Praha 131 after 14 days by micromethod. The conditions noted are these: Praha 131, 336 h.
Assay [4] relates to Mycobacterium tuberculosis. Briefly: Antimycobacterial activity against multidrug-resistant Mycobacterium tuberculosis Praha 1 after 14 days by micromethod. Particulars: Praha 1, 336 h.
The test system of assay [5] is Mycobacterium tuberculosis. Briefly: Antimycobacterial activity against multidrug-resistant Mycobacterium tuberculosis Praha 1 after 7 days by micromethod.
Assay [6] deals with Mycobacterium tuberculosis. Briefly: Antimycobacterial activity against multidrug-resistant Mycobacterium tuberculosis 9449/2007 after 7 days by micromethod.
Assay [7] concerns Mycobacterium tuberculosis. Briefly: Antimycobacterial activity against multidrug-resistant Mycobacterium tuberculosis 8666/2010 after 14 days by micromethod. Particulars: 8666/2010, 336 h.
The subject of assay [8] is Mycobacterium tuberculosis. Description: Antimycobacterial activity against multidrug-resistant Mycobacterium tuberculosis 234/2005 after 7 days by micromethod.
For assay [9], the system named is Mycobacterium tuberculosis. Description: Antimycobacterial activity against multidrug-resistant Mycobacterium tuberculosis 234/2005 after 14 days by micromethod. Particulars: 234/2005, 336 h.
Assay [10] concerns Mycobacterium tuberculosis. Briefly: Antimycobacterial activity against multidrug-resistant Mycobacterium tuberculosis Praha 4 after 7 days by micromethod.
Assay [11] relates to Mycobacterium tuberculosis. Briefly: Antimycobacterial activity against multidrug-resistant Mycobacterium tuberculosis 9449/2007 after 14 days by micromethod. The conditions noted are these: 9449/2007, 336 h.
In assay [12] the test system is Mycobacterium tuberculosis. Briefly: Antimycobacterial activity against multidrug-resistant Mycobacterium tuberculosis 8666/2010 after 7 days by micromethod.

≈ marks a conversion by molar mass, not a printed value.

With `CCCCCCn1nnnc1[Se]Cc1cc([N+](=O)[O-])cc([N+](=O)[O-])c1`, the MIC in assay [1] (Praha 131, 168 h) turned out to be 1 µM (≈ 0.413 µg/mL); in assay [2] it was 0.5 µM (≈ 0.207 µg/mL); in assay [3] it was 0.5 µM (≈ 0.207 µg/mL); in [4], 0.5 µM (≈ 0.207 µg/mL); in [5] (Praha 1, 168 h), 1 µM (≈ 0.413 µg/mL); in assay [6] (9449/2007, 168 h) it was 1 µM (≈ 0.413 µg/mL). Further, the MIC is 0.25 µM (≈ 0.103 µg/mL) in [7]; 1 µM (≈ 0.413 µg/mL) in assay [8] (234/2005, 168 h); 0.5 µM (≈ 0.207 µg/mL) in assay [9]; 1 µM (≈ 0.413 µg/mL) in assay [10] (Praha 4, 168 h); 0.5 µM (≈ 0.207 µg/mL) in [11]; 0.5 µM (≈ 0.207 µg/mL) in assay [12] (8666/2010, 168 h).
On to `O=[N+]([O-])c1cc(C[Se]c2nnnn2C2CCCCC2)cc([N+](=O)[O-])c1`, for which the MIC in assay [1] (Praha 131, 168 h) came out at 1 µM (≈ 0.411 µg/mL); in assay [2], 0.5 µM (≈ 0.206 µg/mL); in [3], 0.5 µM (≈ 0.206 µg/mL); in assay [4] it was 0.5 µM (≈ 0.206 µg/mL); in assay [5] (Praha 1, 168 h) it was 1 µM (≈ 0.411 µg/mL); in assay [6] (9449/2007, 168 h) it was 1 µM (≈ 0.411 µg/mL). Further, the MIC in assay [7] worked out at 0.5 µM (≈ 0.206 µg/mL); in [8] (234/2005, 168 h), 1 µM (≈ 0.411 µg/mL); in [9], 0.5 µM (≈ 0.206 µg/mL); in assay [10] (Praha 4, 168 h), 1 µM (≈ 0.411 µg/mL); in [11] it was 0.5 µM (≈ 0.206 µg/mL); in assay [12] (8666/2010, 168 h) it was 0.5 µM (≈ 0.206 µg/mL).
Turning to `O=[N+]([O-])c1cc(CSc2nnnn2C2CCCCC2)cc([N+](=O)[O-])c1`, the MIC in assay [1] (Praha 131, 168 h) came to 1 µM (≈ 0.364 µg/mL); in assay [2] it was 0.5 µM (≈ 0.182 µg/mL); in assay [3], 1 µM (≈ 0.364 µg/mL); in assay [4] it was 1 µM (≈ 0.364 µg/mL); in assay [5] (Praha 1, 168 h), 1 µM (≈ 0.364 µg/mL); in assay [6] (9449/2007, 168 h), 1 µM (≈ 0.364 µg/mL). Besides, the MIC in assay [7] stood at 0.5 µM (≈ 0.182 µg/mL); in assay [8] (234/2005, 168 h), 1 µM (≈ 0.364 µg/mL); in [9], 0.5 µM (≈ 0.182 µg/mL); in assay [10] (Praha 4, 168 h), 1 µM (≈ 0.364 µg/mL); in [11], 1 µM (≈ 0.364 µg/mL); in [12] (8666/2010, 168 h), 0.5 µM (≈ 0.182 µg/mL).
Take `COc1ccc(-n2nnnc2[Se]Cc2cc([N+](=O)[O-])cc([N+](=O)[O-])c2)cc1`: the MIC came out at 1 µM (≈ 0.435 µg/mL) in [1] (Praha 131, 168 h); 0.5 µM (≈ 0.218 µg/mL) in assay [2]; 1 µM (≈ 0.435 µg/mL) in [3]; 0.5 µM (≈ 0.218 µg/mL) in assay [4]; 1 µM (≈ 0.435 µg/mL) in assay [5] (Praha 1, 168 h); 1 µM (≈ 0.435 µg/mL) in assay [6] (9449/2007, 168 h). The minimum inhibitory concentration (MIC) was found to be 0.5 µM (≈ 0.218 µg/mL) in [7]; 1 µM (≈ 0.435 µg/mL) in assay [8] (234/2005, 168 h); 1 µM (≈ 0.435 µg/mL) in assay [9]; 1 µM (≈ 0.435 µg/mL) in [10] (Praha 4, 168 h); 1 µM (≈ 0.435 µg/mL) in assay [11]; 0.5 µM (≈ 0.218 µg/mL) in assay [12] (8666/2010, 168 h).
Consider `NCC[C@H](O)C(=O)N[C@@H]1C[C@H](N)[C@@H](O[C@H]2O[C@H](CN)[C@@H](O)[C@H](O)[C@H]2O)[C@H](O)[C@H]1O[C@H]1O[C@H](CO)[C@@H](O)[C@H](N)[C@H]1O` [AMIKACIN], for which the MIC in assay [1] (Praha 131, 168 h) is > 32 µM; in assay [5] (Praha 1, 168 h) it was 2 µM (≈ 1.17 µg/mL); in assay [6] (9449/2007, 168 h), 32 µM (≈ 18.7 µg/mL); in assay [8] (234/2005, 168 h), 32 µM (≈ 18.7 µg/mL); in [10] (Praha 4, 168 h) it was 0.5 µM (≈ 0.293 µg/mL); in assay [12] (8666/2010, 168 h) it was > 8 µM.
For the compound `CC(C)/N=c1\cc2n(-c3ccc(Cl)cc3)c3ccccc3nc-2cc1Nc1ccc(Cl)cc1` [CLOFAZIMINE], the MIC in [1] (Praha 131, 168 h) is 1 µM (≈ 0.473 µg/mL); in [5] (Praha 1, 168 h), 0.25 µM (≈ 0.118 µg/mL); in [6] (9449/2007, 168 h), 8 µM (≈ 3.79 µg/mL); in assay [8] (234/2005, 168 h), 16 µM (≈ 7.57 µg/mL); in assay [10] (Praha 4, 168 h) it was 0.125 µM (≈ 0.0592 µg/mL); in assay [12] (8666/2010, 168 h), > 8 µM.
Take `CC[C@@H](CO)NCCN[C@@H](CC)CO` [ETHAMBUTOL]: the MIC in assay [1] (Praha 131, 168 h) was 0.5 µM (≈ 0.102 µg/mL); in assay [5] (Praha 1, 168 h), 2 µM (≈ 0.409 µg/mL); in assay [6] (9449/2007, 168 h), 16 µM (≈ 3.27 µg/mL); in [8] (234/2005, 168 h), > 32 µM; in assay [10] (Praha 4, 168 h), 0.5 µM (≈ 0.102 µg/mL); in assay [12] (8666/2010, 168 h), > 8 µM.
With `NNC(=O)c1ccncc1` [ISONIAZID], the MIC was 0.25 µM (≈ 0.0343 µg/mL) in assay [1] (Praha 131, 168 h); 8 µM (≈ 1.1 µg/mL) in [5] (Praha 1, 168 h); 16 µM (≈ 2.19 µg/mL) in assay [6] (9449/2007, 168 h); > 32 µM in assay [8] (234/2005, 168 h); 1 µM (≈ 0.137 µg/mL) in [10] (Praha 4, 168 h); 32 µM (≈ 4.39 µg/mL) in assay [12] (8666/2010, 168 h).
Turning to `CC1COc2c(N3CCN(C)CC3)c(F)cc3c(=O)c(C(=O)O)cn1c23` (stereo unspecified) [OFLOXACIN], the MIC in assay [1] (Praha 131, 168 h) is 0.5 µM (≈ 0.181 µg/mL); in [5] (Praha 1, 168 h), > 16 µM; in assay [6] (9449/2007, 168 h), 16 µM (≈ 5.78 µg/mL); in [8] (234/2005, 168 h), > 32 µM; in assay [10] (Praha 4, 168 h), 0.125 µM (≈ 0.0452 µg/mL); in assay [12] (8666/2010, 168 h) it was > 8 µM.
In the case of `CO[C@H]1/C=C/O[C@@]2(C)Oc3c(C)c(O)c4c(O)c(c(/C=N/N5CCN(C)CC5)c(O)c4c3C2=O)NC(=O)/C(C)=C\C=C\[C@H](C)[C@H](O)[C@@H](C)[C@@H](O)[C@@H](C)[C@H](OC(C)=O)[C@@H]1C` [RIFAMPIN], the MIC is 2 µM (≈ 1.65 µg/mL) in assay [1] (Praha 131, 168 h); 1 µM (≈ 0.823 µg/mL) in [5] (Praha 1, 168 h); 16 µM (≈ 13.2 µg/mL) in assay [6] (9449/2007, 168 h); 16 µM (≈ 13.2 µg/mL) in assay [8] (234/2005, 168 h); > 8 µM in [10] (Praha 4, 168 h); > 8 µM in [12] (8666/2010, 168 h).
On to `CN[C@@H]1[C@H](O[C@H]2[C@H](O[C@H]3[C@H](O)[C@@H](O)[C@H](N=C(N)N)[C@@H](O)[C@@H]3N=C(N)N)O[C@@H](C)[C@]2(O)C=O)O[C@@H](CO)[C@H](O)[C@H]1O` [STREPTOMYCIN], for which the MIC in assay [1] (Praha 131, 168 h) was 0.5 µM (≈ 0.291 µg/mL); in [5] (Praha 1, 168 h), 0.5 µM (≈ 0.291 µg/mL); in [6] (9449/2007, 168 h), 64 µM (≈ 37.2 µg/mL); in [8] (234/2005, 168 h), 32 µM (≈ 18.6 µg/mL); in assay [10] (Praha 4, 168 h), 1 µM (≈ 0.582 µg/mL); in [12] (8666/2010, 168 h), 16 µM (≈ 9.31 µg/mL).
In the case of GENTAMICIN, the minimum inhibitory concentration (MIC) is 0.5 µM in assay [1]; 16 µM in assay [5]; 16 µM in assay [6]; > 32 µM in [8]; 2 µM in assay [10]; > 8 µM in assay [12].

Values taken from ChEMBL document CHEMBL3297661, “1-Substituted-5-[(3,5-dinitrobenzyl)sulfanyl]-1H-tetrazoles and their isosteric analogs: A new class of selective antitubercular agents active against drug-susceptible and multidrug-resistant mycobacteria” (Eur J Med Chem, 2014).
